Assay results reported in patent US20200377459A1, “CHARGED ION CHANNEL BLOCKERS AND METHODS FOR USE” (President and Fellows of Harvard College, priority 2015, published 2020).
“Also recorded” adds a separate entry of the source.

Columns and labels:
[1] = system: CFA-induced thermal hyperalgesia; assay: CFA-induced thermal hyperalgesia (Hargreaves radiant heat, hind paw); format: in vivo; conditions: mice, intraplantar co-injection with CFA, 1%
Description: FIGS. 2A-2D show reversal of CFA-induced thermal hyperalgesia by charged sodium channel blockers. FIGS. 2A and 2C show time course (0, 1, 6, and 24 hours) of changes in thermal nociceptive sensitivity measured as response latency (seconds) to a constant radiant heat source applied to the plantar surface of hind paw in mice co-treated with 20 μL (injected in the left hindpaw) of CFA (50% emulsion) and saline, and when the CFA was co-applied with QX-314 (1%, hollow square), N-ethyl etidocaine (Compound 21, 1%; dark square), or ACS8180-3B (Compound 3, 1%; solid triangle). FIGS. 2B and 2D show the nociceptive heat pain response time before CFA treatment and after treatment with the different compounds 1 hour post CFA injection. The data are means±SEM of 8-16 mice per group. The statistical comparison with pre-CFA (*) and with CFA+Vehicle (+) is indicated by +P<0.05; ++P<0.01 and +++,*** P<0.001. All procedures were approved by the Institutional Animal Care and Use Committees. Mice and rats were housed in standard environmental conditions (12-h light/dark cycle; 23° C.; food and water ad libitum) at facilities accredited by the Association for Assessment and Accreditation of Laboratory Animal Care. 8-week old male BALB/c (stock number: 001026) and C57BL/6J (stock number 000664) mice were purchased from Jackson Laboratory and respectively used in allergic airway inflammation (FIG. 5) and pain hypersensitivity model (FIGS. 2A-2D). 6-week old male Sprague-Dawley (stock number: 400) rats, 150±25 grams, were purchased from Charles River laboratory and used to assess pain hypersensitivity (FIG. 3). The compounds were injected in the plantar surface of each animal's right hind paw in 10 μl (mice) or 50 μl (rats) volume of 1:1 emulsion of Complete Freund's Adjuvant (CFA). […] On the 4th day, their thermal nociceptive threshold was evaluated. […] Impact of treatment was analyzed 1 h prior and 1, 3, 6 and 24 h post-treatment. […] With each reading the apparatus was set with a cut-off time of 32 s.

[2] = system: allergic airway inflammation induced by Ovalbumin; assay: Ovalbumin allergic airway inflammation, BALF immune cell counts; format: in vivo; conditions: OVA-exposed mice, aerosolized 100 μM on day 18, read day 21
Description: FIG. 5A-5E are results showing that lung sensory neuron silencing with N-ethyl-etidocaine (Compound 21) reduces allergic airway inflammation. OVA-exposed mice (day 21) develop increases in BALF total (FIG. 5A), and CD45+ cells (FIG. 5B), including eosinophil (FIG. 5C), macrophage (FIG. 5D) and T-cell (FIG. 5E) counts. In comparison to vehicle treatment, the silencing of sensory neurons using aerosolized QX-314 (100 μM, hollow square) or N-ethyl-etidocaine (Compound 21) (100 μM, dark square) decreased these levels. […] Data expressed as mean S.E.M; Two-tailed unpaired Student's t-test (n=8-16 animals/group; 1-2 cohorts). […]
Allergic airway inflammation was studied in an ovalbumin (OVA) based model. […] Drugs were nebulized on day 18 (10:00 am) and inflammation (BALF cell content)/airway hyper-responsiveness were assessed on day 21 (10:00 am). […]
Bronchoalveolar lavage fluid (BALF) cells were re-suspended in FACS buffer (PBS, 2% FCS, EDTA), and incubated with Fc block (0.5 mg/ml, 10 min; BD Biosciences). […] A leukocyte differential count was determined during flow cytometry analysis of cells expressing the common leukocyte antigen CD45 (BD Pharmigen; cat no: 553079). […] Total BAL cell counts were performed using a standard hemocytometer, with absolute cell numbers calculated as total BAL cell number multiplied by the percentage of cell subpopulation as determined by FACS.

Row | SMILES | reversal of CFA-induced thermal hyperalgesia [1] | BALF immune cell levels (total, CD45+, eosinophil, macrophage, T-cell) [2]
1 | CCC[N+](CC)(CC)C(CC)C(=O)Nc1c(C)cccc1C (stereo not shown) [Compound 21, N-ethyl etidocaine] | reversed; also recorded: potent blockade | blocked; also recorded: potently reversed; also recorded: decreased; also recorded: tendency toward a greater decrease in comparison to QX-314
2 | CC[N+](CC)(CC)CC(=O)Nc1c(C)cccc1C [QX-314, reference compound] | reversed | decreased
